Measured values published in patent US9340600B2 (Indiana University Research and Technology Corporation, priority 2012, dated 2016).
*1 amine or outer side, *2 acyl side, *3 side chain or, on linkers, in order; H or OH if unused. Where a SMILES comes first, the peptide text is derived from it. Side-chain parts run from the residue outwards. [ ]: non-standard residue; d: D form. The star is where a group is joined. γGlu = O=C(O)[C@H](CCC(=O)[*:2])N[*:1]; Palmitoyl = CCCCCCCCCCCCCCCC(=O)*; Nle = CCCC[C@H](N)C(=O)O; Aib = CC(C)(N)C(=O)O

Legend:
Assay type in all cases: cell-based
GIP receptor = biological target: T1, GIP receptor (Homo sapiens, UniProt P48546); assay: cAMP induction, firefly luciferase-based reporter assay in HEK293 cells co-transfected with GIP receptor; conditions: EC50 at GIP Receptor
T1 construct: expressed in transfected cells; host or cells: HEK293
T1 sequence (P48546 22-466): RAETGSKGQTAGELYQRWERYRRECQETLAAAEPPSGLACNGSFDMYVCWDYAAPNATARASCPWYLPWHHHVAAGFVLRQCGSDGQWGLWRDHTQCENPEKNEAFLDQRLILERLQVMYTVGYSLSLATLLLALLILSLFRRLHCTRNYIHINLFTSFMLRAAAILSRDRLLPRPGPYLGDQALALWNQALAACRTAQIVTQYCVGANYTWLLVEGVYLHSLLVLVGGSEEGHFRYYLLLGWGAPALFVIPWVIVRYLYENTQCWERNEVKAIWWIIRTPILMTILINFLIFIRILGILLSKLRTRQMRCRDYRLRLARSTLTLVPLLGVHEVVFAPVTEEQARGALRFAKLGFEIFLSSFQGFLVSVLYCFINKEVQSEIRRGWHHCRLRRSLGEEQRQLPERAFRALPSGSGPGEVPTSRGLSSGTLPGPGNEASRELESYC
Excerpt: (§1) This example describes an exemplary method of testing the biological activity of the peptides of the present disclosures, which method involves assaying cAMP synthesis.

glucagon receptor = biological target: T2, glucagon receptor (Homo sapiens, UniProt P47871); assay: cAMP induction, firefly luciferase-based reporter assay in HEK293 cells co-transfected with glucagon receptor; conditions: EC50 at Glucagon Receptor
T2 construct: expressed in transfected cells; host or cells: HEK293
Excerpt: as §1

GLP-1 receptor = biological target: T3, GLP-1 receptor (Homo sapiens, UniProt P43220); assay: cAMP induction, firefly luciferase-based reporter assay in HEK293 cells co-transfected with GLP-1 receptor; conditions: EC50 at GLP-1 Receptor
T3 construct: expressed in transfected cells; host or cells: HEK293
Excerpt: as §1

[1] = Table 3, analogs of SEQ ID NO: 18 varying at position 3
[2] = Table 2, analogs of SEQ ID NO: 18 varying at positions 16-21
[3] = Table 4, analogs of SEQ ID NO: 43 varying at position 3
[4] = Table 5, analogs of SEQ ID NO: 10

T2 sequence (P47871 26-477): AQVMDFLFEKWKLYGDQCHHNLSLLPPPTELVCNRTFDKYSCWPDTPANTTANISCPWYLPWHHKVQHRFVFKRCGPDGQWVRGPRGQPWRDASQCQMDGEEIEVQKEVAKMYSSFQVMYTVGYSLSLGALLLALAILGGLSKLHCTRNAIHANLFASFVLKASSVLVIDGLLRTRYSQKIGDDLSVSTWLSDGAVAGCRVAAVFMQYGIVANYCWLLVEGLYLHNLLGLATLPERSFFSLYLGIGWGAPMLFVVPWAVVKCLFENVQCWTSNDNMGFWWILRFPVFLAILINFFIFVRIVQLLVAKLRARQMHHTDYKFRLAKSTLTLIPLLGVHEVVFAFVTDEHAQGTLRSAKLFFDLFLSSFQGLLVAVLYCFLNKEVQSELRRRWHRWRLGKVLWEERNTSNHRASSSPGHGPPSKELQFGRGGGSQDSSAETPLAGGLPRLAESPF
T3 sequence (P43220 24-463): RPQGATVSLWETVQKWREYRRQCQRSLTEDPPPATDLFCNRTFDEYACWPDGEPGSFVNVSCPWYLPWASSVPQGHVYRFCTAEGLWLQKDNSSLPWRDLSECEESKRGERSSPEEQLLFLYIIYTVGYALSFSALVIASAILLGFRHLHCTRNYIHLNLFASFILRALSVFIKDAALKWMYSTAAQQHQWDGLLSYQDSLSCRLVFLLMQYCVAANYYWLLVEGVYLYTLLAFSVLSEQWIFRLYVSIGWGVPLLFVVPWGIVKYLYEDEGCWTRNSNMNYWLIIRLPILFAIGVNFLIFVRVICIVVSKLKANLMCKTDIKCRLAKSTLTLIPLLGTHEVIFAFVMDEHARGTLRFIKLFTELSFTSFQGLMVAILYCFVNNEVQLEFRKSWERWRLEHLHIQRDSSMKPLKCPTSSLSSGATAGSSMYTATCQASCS

## CCCCCCCCCCCCCCCC(=O)N[C@@H](CCC(=O)NCCCC[C@H](NC(=O)[C@H](CC(=O)O)NC(=O)[C@H](CO)NC(=O)[C@@H](NC(=O)[C@H](Cc1ccccc1)NC(=O)[C@@H](NC(=O)CNC(=O)[C@H](CCCC)NC(=O)C(C)(C)NC(=O)[C@@H](N)Cc1c[nH]cn1)[C@@H](C)O)[C@@H](C)O)C(=O)N[C@@H](CO)C(=O)N[C@@H](CCCCN)C(=O)N[C@@H](Cc1ccc(O)cc1)C(=O)N[C@@H](CC(C)C)C(=O)N[C@@H](CCC(=O)O)C(=O)N[C@@H](CCC(=O)O)C(=O)N[C@@H](CCCNC(=N)N)C(=O)N[C@@H](C)C(=O)N[C@@H](C)C(=O)N[C@@H](CCC(N)=O)C(=O)N[C@@H](CCC(=O)O)C(=O)N[C@@H](Cc1ccccc1)C(=O)N[C@H](C(=O)N[C@@H](CCC(N)=O)C(=O)N[C@@H](Cc1c[nH]c2ccccc12)C(=O)N[C@@H](CC(C)C)C(=O)N[C@@H](CC(C)C)C(=O)N[C@@H](CCC(=O)O)C(=O)NCC(=O)NCC(=O)N1CCC[C@H]1C(=O)N[C@@H](CO)C(=O)N[C@@H](CO)C(=O)NCC(=O)N[C@@H](C)C(=O)N1CCC[C@H]1C(=O)N1CCC[C@H]1C(=O)N1CCC[C@H]1C(=O)N[C@@H](CO)C(N)=O)C(C)C)C(=O)O [compound 40] (H-H[Aib][Nle]GTFTSDK([γGlu-Palmitoyl])SKYLEERAAQEFVQWLLEGGPSSGAPPPS-NH2; N-terminus assumed)
GIP receptor; [1]
  EC50: 4 pM
Glucagon receptor; [1]
  EC50: 68 pM
GLP-1 receptor; [1]
  EC50: 2 pM

## CCCCCCCCCCCCCCCC(=O)N[C@@H](CCC(=O)NCCCC[C@H](NC(=O)[C@H](CC(=O)O)NC(=O)[C@H](CO)NC(=O)[C@@H](NC(=O)[C@H](Cc1ccccc1)NC(=O)[C@@H](NC(=O)CNC(=O)[C@H](CCC(N)=O)NC(=O)C(C)(C)NC(=O)[C@@H](N)Cc1c[nH]cn1)[C@@H](C)O)[C@@H](C)O)C(=O)N[C@@H](CO)C(=O)N[C@@H](CCCCN)C(=O)N[C@@H](Cc1ccc(O)cc1)C(=O)N[C@@H](CC(C)C)C(=O)N[C@@H](CC(=O)O)C(=O)N[C@@H](CCC(=O)O)C(=O)N[C@@H](CCCNC(=N)N)C(=O)N[C@@H](C)C(=O)N[C@@H](C)C(=O)NC(C)(C)C(=O)N[C@@H](CCC(=O)O)C(=O)N[C@@H](Cc1ccccc1)C(=O)N[C@H](C(=O)N[C@@H](CCC(N)=O)C(=O)N[C@@H](Cc1c[nH]c2ccccc12)C(=O)N[C@@H](CC(C)C)C(=O)N[C@@H](CC(C)C)C(=O)N[C@@H](CC(=O)O)C(=O)NCC(=O)NCC(=O)N1CCC[C@H]1C(=O)N[C@@H](CO)C(=O)N[C@@H](CO)C(=O)NCC(=O)N[C@@H](C)C(=O)N1CCC[C@H]1C(=O)N1CCC[C@H]1C(=O)N1CCC[C@H]1C(=O)N[C@@H](CO)C(N)=O)C(C)C)C(=O)O [compound 21] (H-H[Aib]QGTFTSDK([γGlu-Palmitoyl])SKYLDERAA[Aib]EFVQWLLDGGPSSGAPPPS-NH2; N-terminus assumed)
GIP receptor; [2]
  EC50: 1 pM
Glucagon receptor; [2]
  EC50: 2 pM
GLP-1 receptor; [2]
  EC50: 4 pM

## CCCCCCCCCCCCCCCC(=O)N[C@@H](CCC(=O)NCCCC[C@H](NC(=O)[C@H](CC(=O)O)NC(=O)[C@H](CO)NC(=O)[C@@H](NC(=O)[C@H](Cc1ccccc1)NC(=O)[C@@H](NC(=O)CNC(=O)[C@@H](NC(=O)C(C)(C)NC(=O)[C@@H](N)Cc1c[nH]cn1)C(C)C)[C@@H](C)O)[C@@H](C)O)C(=O)N[C@@H](CO)C(=O)N[C@@H](CCCCN)C(=O)N[C@@H](Cc1ccc(O)cc1)C(=O)N[C@@H](CC(C)C)C(=O)N[C@@H](CC(=O)O)C(=O)N[C@@H](CCC(=O)O)C(=O)N[C@@H](CCCNC(=N)N)C(=O)N[C@@H](C)C(=O)N[C@@H](C)C(=O)N[C@@H](CCC(N)=O)C(=O)N[C@@H](CC(=O)O)C(=O)N[C@@H](Cc1ccccc1)C(=O)N[C@H](C(=O)N[C@@H](CCC(N)=O)C(=O)N[C@@H](Cc1c[nH]c2ccccc12)C(=O)N[C@@H](CC(C)C)C(=O)N[C@@H](CC(C)C)C(=O)N[C@@H](CCC(=O)O)C(=O)NCC(=O)NCC(=O)N1CCC[C@H]1C(=O)N[C@@H](CO)C(=O)N[C@@H](CO)C(=O)NCC(=O)N[C@@H](C)C(=O)N1CCC[C@H]1C(=O)N1CCC[C@H]1C(=O)N1CCC[C@H]1C(=O)N[C@@H](CO)C(N)=O)C(C)C)C(=O)O [compound 45] (H-H[Aib]VGTFTSDK([γGlu-Palmitoyl])SKYLDERAAQDFVQWLLEGGPSSGAPPPS-NH2)
GIP receptor; [3]
  EC50: 5 pM
Glucagon receptor; [3]
  EC50: 26 pM
GLP-1 receptor; [3]
  EC50: 6 pM

## CCCCCCCCCCCCCCCC(=O)N[C@@H](CCC(=O)NCCCC[C@H](NC(=O)[C@H](CC(=O)O)NC(=O)[C@H](CO)NC(=O)[C@@H](NC(=O)[C@H](Cc1ccccc1)NC(=O)[C@@H](NC(=O)CNC(=O)[C@H](CC[S+](C)[O-])NC(=O)C(C)(C)NC(=O)[C@@H](N)Cc1c[nH]cn1)[C@@H](C)O)[C@@H](C)O)C(=O)N[C@@H](CO)C(=O)N[C@@H](CCCCN)C(=O)N[C@@H](Cc1ccc(O)cc1)C(=O)N[C@@H](CC(C)C)C(=O)N[C@@H](CC(=O)O)C(=O)N[C@@H](CCC(=O)O)C(=O)N[C@@H](CCCNC(=N)N)C(=O)N[C@@H](C)C(=O)N[C@@H](C)C(=O)N[C@@H](CCC(N)=O)C(=O)N[C@@H](CC(=O)O)C(=O)N[C@@H](Cc1ccccc1)C(=O)N[C@H](C(=O)N[C@@H](CCC(N)=O)C(=O)N[C@@H](Cc1c[nH]c2ccccc12)C(=O)N[C@@H](CC(C)C)C(=O)N[C@@H](CC(C)C)C(=O)N[C@@H](CCC(=O)O)C(=O)NCC(=O)NCC(=O)N1CCC[C@H]1C(=O)N[C@@H](CO)C(=O)N[C@@H](CO)C(=O)NCC(=O)N[C@@H](C)C(=O)N1CCC[C@H]1C(=O)N1CCC[C@H]1C(=O)N1CCC[C@H]1C(=O)N[C@@H](CO)C(N)=O)C(C)C)C(=O)O (stereo partly drawn) [compound 46]
GIP receptor; [3]
  EC50: 18 pM
Glucagon receptor; [3]
  EC50: 89 pM
GLP-1 receptor; [3]
  EC50: 3 pM

## CCCCCCCCCCCCCCCC(=O)N[C@@H](CCC(=O)NCCCC[C@H](NC(=O)[C@H](CC(=O)O)NC(=O)[C@H](CO)NC(=O)[C@@H](NC(=O)[C@H](Cc1ccccc1)NC(=O)[C@@H](NC(=O)CNC(=O)[C@H](CCC(N)=O)NC(=O)C(C)(C)NC(=O)[C@@H](N)Cc1c[nH]cn1)[C@@H](C)O)[C@@H](C)O)C(=O)N[C@@H](CO)C(=O)N[C@@H](CCCCN)C(=O)N[C@@H](Cc1ccc(O)cc1)C(=O)N[C@@H](CC(C)C)C(=O)N[C@@H](CC(=O)O)C(=O)N[C@@H](CCCCN)C(=O)N[C@@H](Cc1c[nH]cn1)C(=O)N[C@@H](C)C(=O)N[C@@H](C)C(=O)NC(C)(C)C(=O)N[C@@H](CCC(=O)O)C(=O)N[C@@H](Cc1ccccc1)C(=O)N[C@H](C(=O)N[C@@H](CCC(N)=O)C(=O)N[C@@H](Cc1c[nH]c2ccccc12)C(=O)N[C@@H](CC(C)C)C(=O)N[C@@H](CC(C)C)C(=O)N[C@@H](CC(=O)O)C(=O)NCC(=O)NCC(=O)N1CCC[C@H]1C(=O)N[C@@H](CO)C(=O)N[C@@H](CO)C(=O)NCC(=O)N[C@@H](C)C(=O)N1CCC[C@H]1C(=O)N1CCC[C@H]1C(=O)N1CCC[C@H]1C(=O)N[C@@H](CO)C(N)=O)C(C)C)C(=O)O [compound 28] (H-H[Aib]QGTFTSDK([γGlu-Palmitoyl])SKYLDKHAA[Aib]EFVQWLLDGGPSSGAPPPS-NH2; N-terminus assumed)
GIP receptor; [2]
  EC50: 1 pM
Glucagon receptor; [2]
  EC50: 6 pM
GLP-1 receptor; [2]
  EC50: 2 pM

## CCCCCCCCCCCCCCCC(=O)N[C@@H](CCC(=O)NCCCC[C@H](NC(=O)[C@H](CC(=O)O)NC(=O)[C@H](CO)NC(=O)[C@@H](NC(=O)[C@H](Cc1ccccc1)NC(=O)[C@@H](NC(=O)CNC(=O)[C@H](CCC(N)=O)NC(=O)C(C)(C)NC(=O)[C@@H](N)Cc1c[nH]cn1)[C@@H](C)O)[C@@H](C)O)C(=O)N[C@@H](CO)C(=O)N[C@@H](CCCCN)C(=O)N[C@@H](Cc1ccc(O)cc1)C(=O)N[C@@H](CC(C)C)C(=O)N[C@@H](CC(=O)O)C(=O)N[C@@H](CCC(=O)O)C(=O)N[C@@H](CCCNC(=N)N)C(=O)N[C@@H](C)C(=O)N[C@@H](C)C(=O)N[C@@H](CCC(N)=O)C(=O)N[C@@H](CC(=O)O)C(=O)N[C@@H](Cc1ccccc1)C(=O)N[C@H](C(=O)N[C@@H](CCC(N)=O)C(=O)N[C@@H](Cc1c[nH]c2ccccc12)C(=O)N[C@@H](CC(C)C)C(=O)N[C@@H](CC(C)C)C(=O)N[C@@H](CCC(=O)O)C(=O)NCC(=O)NCC(=O)N1CCC[C@H]1C(=O)N[C@@H](CO)C(=O)N[C@@H](CO)C(=O)NCC(=O)N[C@@H](C)C(=O)N1CCC[C@H]1C(=O)N1CCC[C@H]1C(=O)N1CCC[C@H]1C(=O)N[C@@H](CO)C(N)=O)C(C)C)C(=O)O [compound 43] (H-H[Aib]QGTFTSDK([γGlu-Palmitoyl])SKYLDERAAQDFVQWLLEGGPSSGAPPPS-NH2)
GIP receptor; Table 1
  EC50: 5 pM
GIP receptor; [3]
  EC50: 4 pM
GIP receptor; [4]
  EC50: 18 pM
Glucagon receptor; Table 1
  EC50: 6 pM
Glucagon receptor; [3]
  EC50: 5 pM
Glucagon receptor; [4]
  EC50: 5 pM
GLP-1 receptor; Table 1
  EC50: 4 pM
GLP-1 receptor; [3]
  EC50: 10 pM
GLP-1 receptor; [4]
  EC50: 7 pM
